Experimental data: patent EP0525836B1, “Assay method using novel NAD synthetase” (priority 1986, dated 1988)

Biological target: T1, NAD synthetase (Geobacillus stearothermophilus ATCC 12980, UniProt A0ACH1E6M2)
T1 sequence (A0ACH1E6M2 1-246): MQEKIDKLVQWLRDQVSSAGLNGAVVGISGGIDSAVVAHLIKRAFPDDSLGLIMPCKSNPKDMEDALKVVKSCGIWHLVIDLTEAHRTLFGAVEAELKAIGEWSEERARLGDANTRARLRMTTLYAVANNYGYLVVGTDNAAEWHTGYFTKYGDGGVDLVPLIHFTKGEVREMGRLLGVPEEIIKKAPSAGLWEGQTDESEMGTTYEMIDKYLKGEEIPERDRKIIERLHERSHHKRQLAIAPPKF
Assay: biochemical
Assay type: biochemical, Bacillus stearothermophilus H-804
Details: 5 mM in reaction medium I
Procedure: In the enzyme activity assay, each metallic ion ( 5 mM ), EDTA ( 20 mM ) or each surface active agent ( 0.1 % ) in Table 1 is added separately to the reaction medium I, and the enzyme activity is measured. […]
(§1) • 50 mM Tris-HC ℓ buffer pH 8.0 • 1 mM K C ℓ • 5 mM MgC ℓ 2 • 0.05 % bovine serum albumin • 2 mM ATP • 0.5 mM deamide-NAD • 25 mM ( NH4 )2 SO4
(§2) • 50 mM Tris-HCℓ buffer pH 8.0 • 10 U diaphorase ( Toyo Jozo Co. from genus Bacillus) • 3 % ethanol • 10 U alcohol dehydrogenase/m ℓ ( Toyo Jozo, yeast ) • 0.025 % NTB ( nitrotetrazolium blue ) • 0.1 % Triton X-100 • 10 mM EDTA
(§3) Reaction medium I ( 0.3 mℓ ) in a test tube is pre-incubated at 37 °C, and the enzyme solution ( 5 µ ℓ ) is added thereto. The mixture is then incubated at 37 °C for exactly 10 minutes.
(§4) Reaction medium II ( 0.8 mℓ ) is added thereto to stop the reaction and simultaneously to start the cycling reaction at 37°C for exactly 5 minutes. After stopping the cycling reaction by adding 0.1 N-HC ℓ( 2.0 mℓ) , the absorbency at 550 nm is measured to calculate the enzyme activity. The enzyme activity is calculated by the following equation : NAD synthetase activity ( mU/ m ℓ ) = (ΔA550)/(ΔS550)x(1.0)/(0.005)x(f)/(10) [formula] wherein ΔA: absorbency of specimen, ΔS: absorbency of standard solution ( 0.1 mM NAD ), 0.005: specimen volume ( mℓ ) 10 : reaction time, f : dilution ration.

| Molecule | Effect on enzyme activity |
| --- | --- |
| NiCℓ2 | inhibited |

Same assay, conditions: 20000 µM

| Molecule | Effect on enzyme activity |
| --- | --- |
| O=C(O)CN(CCN(CC(=O)O)CC(=O)O)CC(=O)O [EDTA, reference compound] | no activity |

Same assay, conditions: metallic ion 5 mM added to reaction medium I, which contains MgCℓ2 5 mM; no addition = 100; 10 min

| Molecule | Relative activity |
| --- | --- |
| AℓCℓ3 | 73.4% |
| BaCℓ2 | 89.5% |
| CaCℓ2 | 48.4% |
| CsCℓ | 100% |
| FeCℓ3 | 88.4% |
| KNO3 | 99.2% |
| LiCℓ | 100% |
| MnCℓ2 | 54.0% |
| NaCℓ | 102.4% |
| NaN3 | 102.4% |
| NaNO3 | 96.8% |
| NiCℓ2 | 7.3% |

Same assay, conditions: read-out: Relative activity

| Molecule | activity at 20000 µM |
| --- | --- |
| O=C(O)CN(CCN(CC(=O)O)CC(=O)O)CC(=O)O [EDTA, reference compound] | 0% |

Same assay, conditions: surface active agent 0.1 % added to reaction medium I, which contains MgCℓ2 5 mM; no addition = 100

| Molecule | Relative activity |
| --- | --- |
| Nonidet P-40 | 103.9% |
| iso-octyl phenoxy polyethyloxy ethanol [Triton X-100] | 109.6% |

Biological target: T1, NAD synthetase
Assay: Substrate specificity: ( NH4 ) 2SO4 replaced by amino acids in the enzyme activity assay
Assay type: biochemical, Bacillus stearothermophilus H-804
Details: ( NH4 ) 2SO4 25 mM replaced by the amino acid; activity on ( NH4 ) 2SO4 is 100
Procedure: In any assay method for enzyme activity hereinafter described, ( NH4 ) 2SO4 25 mM may be replaced by L-valine, L-homosirine, L-serine, L-alanine, L-methine, L-tyrosine, L-threonine, L-leucine, L-isolucine, L-arginine, L-phenylalanine, L-histidine, L-asparagine or L-glutamine, and the enzymatic activity measured.
as §1, §2, §3, §4

| Molecule | Relative activity of the enzyme |
| --- | --- |
| ammonium sulfate [( NH4 ) 2SO4] | 100 |

Same assay, conditions: ( NH4 ) 2SO4 25 mM replaced by the amino acid; activity on ( NH4 ) 2SO4 is 100; read-out: Relative activity of the enzyme

| Molecule | activity at 25000 µM |
| --- | --- |
| C[C@H](N)C(=O)O [L-alanine] | 0% |
| N=C(N)NCCC[C@H](N)C(=O)O [L-arginine] | 0% |
| NC(=O)C[C@H](N)C(=O)O [L-asparagine] | 0% |
| NC(=O)CC[C@H](N)C(=O)O [L-glutamine] | 0% |
| N[C@@H](Cc1c[nH]cn1)C(=O)O [L-histidine] | 0% |
| N[C@@H](CCO)C(=O)O [L-homosirine] | 0% |
| CC[C@H](C)[C@H](N)C(=O)O [L-isolucine] | 0% |
| CC(C)C[C@H](N)C(=O)O [L-leucine] | 0% |
| CSCC[C@H](N)C(=O)O [L-methine] | 0% |
| N[C@@H](Cc1ccccc1)C(=O)O [L-phenylalanine] | 0% |
| N[C@@H](CO)C(=O)O [L-serine] | 0% |
| C[C@@H](O)[C@H](N)C(=O)O [L-threonine] | 0% |
| N[C@@H](Cc1ccc(O)cc1)C(=O)O [L-tyrosine] | 0% |
| CC(C)[C@H](N)C(=O)O [L-valine] | 0% |

Biological target: T1, NAD synthetase
Assay: Optimum concentration of metallic ion (Example 8)
Assay type: biochemical, Bacillus stearothermophilus H-804
Details: 0.25 to 4 mM tested in reaction medium I without MgCℓ2
Procedure: Reaction medium I : • 50 mM Tris-HC ℓ buffer pH 8.0 • 10 mM KC ℓ • 2 mM ATP • 0.05 % bovine serum albumin • 0.5 mM deamide-NAD • 25 mM ( NH4 )2SO4
Reaction medium II: • 50 mM Tris-HC ℓ buffer pH 8.0 • 10 U diaphorase/m ℓ ( Toyo Jozo Co, Bacillus ) • 3 % ethanol • 10 U alcohol dehydrogenase/mℓ (Toyobo Co, yeast) • 0.025 % NTB • 0.1 % Triton X-100 • 10mM EDTA
To a reaction medium I in a test tube were added 0.25, 0.50, 0.75, 1, 2, 3 and 4 mM MgCℓ2 and 0.25, 0.50, 0.75, 1, 2, 3 and 4 mM MnCℓ2, respectively; each was then treated, after adding the present NAD synthetase solution, according to an assay method as previously illustrated.
Optimum concentration of MnCℓ2 is at 3mM.

| Molecule | Optimum concentration |
| --- | --- |
| MnCℓ2 | 3 mM |

Biological target: NAD synthetase ( EC 6.3.1.5 ) (Escherichia coli, UniProt P18843)
Assay: not given
Details: read-out: km-value, literature value; cited from earlier work

NAD synthetase ( EC 6.3.1.5 ), sequence (P18843 whole entry): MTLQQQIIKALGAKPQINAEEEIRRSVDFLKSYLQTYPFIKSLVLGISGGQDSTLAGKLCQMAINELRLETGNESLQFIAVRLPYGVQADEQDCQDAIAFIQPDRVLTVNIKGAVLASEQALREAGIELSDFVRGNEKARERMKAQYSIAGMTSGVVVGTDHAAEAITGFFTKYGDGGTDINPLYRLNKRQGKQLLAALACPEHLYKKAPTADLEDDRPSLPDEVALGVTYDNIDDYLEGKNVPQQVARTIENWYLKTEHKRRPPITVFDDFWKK

| Molecule | Km |
| --- | --- |
| NC(=O)CC[C@H](N)C(=O)O [L-glutamine] | 16 mM |
